Test results reported in the supplement of paper PMC5908809.

Experiments:
[1] = tested on: YT (IL-2 2.5 ng/mL); assay: relative IC50 (inflection point of fitted viability curve, relative to fitted max inhibition); higher = less sensitive; conditions: 72 h
Protocol: (§1)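 Drug sensitivity and resistance testing: 5 concentrations over a 10,000-fold range, 72 h at 37 °C, viability by CellTiter-Glo normalised to DMSO and benzethonium chloride controls. IC50 is the inflection point of a logistic fit (min fixed at 0, max fitted), so it is relative to the fitted maximal inhibition. Kept only where fitted max inhibition is at least 50%.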

[2] = tested on: NK-YS (IL-2 2.5 ng/mL); assay: as above; conditions: 72 h
Protocol: as §1

[3] = tested on: DERL-7 (IL-2 2.5 ng/mL); assay: as above; conditions: 72 h
Protocol: as §1

[4] = tested on: KAI3 (IL-2 2.5 ng/mL); assay: as above; conditions: 72 h
Protocol: as §1

[5] = tested on: SNK-6 (IL-2 2.5 ng/mL); assay: as above; conditions: 72 h
Protocol: as §1

[6] = tested on: NK-92 (IL-2 2.5 ng/mL); assay: as above; conditions: 72 h
Protocol: as §1

[7] = tested on: NKL (IL-2 2.5 ng/mL); assay: as above; conditions: 72 h
Protocol: as §1

[8] = tested on: normal NK cells expanded with K562-aAPC; assay: percent inhibition of viability; higher = more inhibition; conditions: 72 h, IL-2 2.5 ng/mL
Protocol: (§2)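 Drug sensitivity and resistance testing on K562-aAPC-expanded normal NK cells: 5 concentrations (10-fold steps over a 10,000-fold range), 72 h at 37 °C, viability by CellTiter-Glo normalised to DMSO and benzethonium chloride controls; DSS from the fitted curve.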

[9] = tested on: IMC-1 (IL-2 20 ng/mL); assay: drug sensitivity score (DSS) (DSS units); higher = more sensitive; extreme values may be limits of the assay; conditions: 72 h
[10] = tested on: normal primary NK cells, pool 2 (3 donors) (IL-2 2.5 ng/mL); assay: as above; conditions: 72 h
[11] = tested on: normal primary NK cells, pool 1 (3 donors) (IL-2 2.5 ng/mL); assay: as above; conditions: 72 h
[12] = tested on: YT (IL-2 2.5 ng/mL); assay: as above; conditions: 72 h
[13] = tested on: NK-YS (IL-2 2.5 ng/mL); assay: as above; conditions: 72 h
[14] = tested on: normal primary NK cells, pool 1 (3 donors), resting (IL-2 0 ng/mL); assay: as above; conditions: 72 h
[15] = tested on: DERL-7 (IL-2 2.5 ng/mL); assay: as above; conditions: 72 h
[16] = tested on: KAI3 (IL-2 2.5 ng/mL); assay: as above; conditions: 72 h
[17] = tested on: SNK-6 (IL-2 2.5 ng/mL); assay: as above; conditions: 72 h
[18] = tested on: KHYG-1 (IL-2 2.5 ng/mL); assay: as above; conditions: 72 h
[19] = tested on: NK-92 (IL-2 2.5 ng/mL); assay: as above; conditions: 72 h
[20] = tested on: normal primary NK cells, pool 3 (3 donors) (IL-2 2.5 ng/mL); assay: as above; conditions: 72 h
[21] = tested on: NKL (IL-2 2.5 ng/mL); assay: as above; conditions: 72 h
[22] = tested on: IMC-1 (IL-2 20 ng/mL); assay: percent inhibition of viability; higher = more inhibition; conditions: 72 h
[23] = tested on: normal primary NK cells, pool 2 (3 donors) (IL-2 2.5 ng/mL); assay: as above; conditions: 72 h
[24] = tested on: normal primary NK cells, pool 1 (3 donors) (IL-2 2.5 ng/mL); assay: as above; conditions: 72 h
[25] = tested on: YT (IL-2 2.5 ng/mL); assay: as above; conditions: 72 h
[26] = tested on: NK-YS (IL-2 2.5 ng/mL); assay: as above; conditions: 72 h
[27] = tested on: normal primary NK cells, pool 1 (3 donors), resting (IL-2 0 ng/mL); assay: as above; conditions: 72 h
[28] = tested on: DERL-7 (IL-2 2.5 ng/mL); assay: as above; conditions: 72 h
[29] = tested on: KAI3 (IL-2 2.5 ng/mL); assay: as above; conditions: 72 h
[30] = tested on: SNK-6 (IL-2 2.5 ng/mL); assay: as above; conditions: 72 h
[31] = tested on: KHYG-1 (IL-2 2.5 ng/mL); assay: as above; conditions: 72 h
[32] = tested on: NK-92 (IL-2 2.5 ng/mL); assay: as above; conditions: 72 h
[33] = tested on: normal primary NK cells, pool 3 (3 donors) (IL-2 2.5 ng/mL); assay: as above; conditions: 72 h
[34] = tested on: NKL (IL-2 2.5 ng/mL); assay: as above; conditions: 72 h
[35] = tested on: normal NK cells expanded with K562-aAPC; assay: drug sensitivity score (DSS) (DSS units); higher = more sensitive; extreme values may be limits of the assay; conditions: 72 h; IL-2 2.5 ng/mL
Protocol: as §2

FC(F)c1nc2ccccc2n1-c1nc(N2CCOCC2)nc(N2CCOCC2)n1 [ZSTK474]
Conditions	relative IC50 [nM]
[1]	262
[2]	655
[3]	110
[4]	290
[5]	832
[6]	31.2
[7]	436

FC(F)c1nc2ccccc2n1-c1nc(N2CCOCC2)nc(N2CCOCC2)n1 [ZSTK474] (max concentration tested 10000 nM)
percent inhibition of viability [%]
Conditions	1 nM	10 nM	100 nM	1000 nM	10000 nM
[8]	-8.61	1.11	12.5	35.9	49.6
[22]	0.84	-3.67	-9.08	-31.5	-20.7
[23]	-2.66	-3.09	1.26	20	34.2
[24]	-2.64	-1.27	20.4	31.6	32.4
[25]	3.19	3.41	11.6	42.3	50.5
[26]	-6.13	-3.67	5.5	36	57.2
[27]	-19.3	-14.1	10.2	27.2	41.5
[28]	6	10.9	36.5	75.4	81.7
[29]	4.91	1.34	14.2	43.2	55.8
[30]	17.9	-3.78	-1.36	35.9	58.6
[31]	1.03	-2.51	5.44	17.9	48
[32]	1.13	13.1	45.6	48.8	57.2
[33]	-3.55	-8.03	-3.22	10.6	22
[34]	-4.7	3.86	6.05	54.5	69.3

Conditions	drug sensitivity score
[9]	0
[10]	3.84
[11]	7.96
[12]	9
[13]	7.54
[14]	5.69
[15]	18.4
[16]	9.53
[17]	7.51
[18]	4.45
[19]	16.9
[20]	1.91
[21]	11
[35]	7.86
